This experiment has as its system CD2F1 mice, L1210 leukemia ip, survival T/C. The experiment is described as follows: NCI In Vivo Anticancer Drug Screen. Data for tumor model L1210 Leukemia (intraperitoneal) in CD2F1 (CDF1) mice. Particulars: higher = longer survival. In outline: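 Activity against a transplanted murine tumor was judged by comparing the compound group with a vehicle group. The outcome in the treated animals was divided by that in the controls.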

Setting [1] is: endpoint: mean survival time, dose: 200.0 mg/kg/injection, schedule: Q01DX001 (ip), vehicle: saline.
[2] abbreviates: endpoint: mean survival time, dose: 400.0 mg/kg/injection, schedule: Q01DX001 (ip), vehicle: saline.
Where [3] appears, read: endpoint: mean survival time, dose: 100.0 mg/kg/injection, schedule: Q01DX001 (ip), vehicle: saline.
Setting [4] is: endpoint: mean survival time, dose: 100.0 mg/kg/injection, schedule: Q04DX003 (ip), vehicle: saline with Tween-80.

Several values for one entry are separate records, joined by “and”; a condition that tells them apart may be missing. Equal entries are not always repeated. Toxic doses and inconclusive results are not listed.

On to `C/C(=N\N=C(N)N)c1ccc(NC(=O)Nc2ccc(/C(C)=N/N=C(N)N)cc2)cc1`, for which the T/C reads like this: (endpoint: mean survival time, dose: 25.0 mg/kg/injection, schedule: Q01DX005 (ip), vehicle: saline) 155 % of control; (endpoint: mean survival time, dose: 25.0 mg/kg/injection, schedule: Q01DX009 (ip), vehicle: saline) 155 % of control; (endpoint: mean survival time, dose: 25.0 mg/kg/injection, schedule: Q01DX009 (sc), vehicle: saline) 101 % of control; (endpoint: mean survival time, dose: 50.0 mg/kg/injection, schedule: Q01DX005 (ip), vehicle: saline) 185 % of control; (endpoint: mean survival time, dose: 50.0 mg/kg/injection, schedule: Q01DX007 (ip), vehicle: saline) 152 % of control; (endpoint: mean survival time, dose: 50.0 mg/kg/injection, schedule: Q01DX009 (ip), vehicle: saline) 154 % of control and 188 % of control. The T/C runs as follows: (endpoint: mean survival time, dose: 50.0 mg/kg/injection, schedule: Q01DX009 (sc), vehicle: saline) 107 % of control; (endpoint: mean survival time, dose: 100.0 mg/kg/injection, schedule: Q01DX001 (sc), vehicle: saline) 101 % of control; (endpoint: mean survival time, dose: 100.0 mg/kg/injection, schedule: Q01DX005 (ip), vehicle: saline) 223 % of control; (endpoint: mean survival time, dose: 100.0 mg/kg/injection, schedule: Q01DX007 (ip), vehicle: saline) 225 % of control; (endpoint: mean survival time, dose: 100.0 mg/kg/injection, schedule: Q01DX009 (ip), vehicle: saline) 250 % of control and 314 % of control; (endpoint: mean survival time, dose: 100.0 mg/kg/injection, schedule: Q01DX009 (oral), vehicle: saline) 98 % of control. Also, the T/C (endpoint: mean survival time, dose: 100.0 mg/kg/injection, schedule: Q01DX009 (sc), vehicle: saline) is 102 % of control; the T/C (endpoint: mean survival time, dose: 100.0 mg/kg/injection, schedule: Q03DX003 (ip), vehicle: saline) is 154 % of control; the T/C (endpoint: mean survival time, dose: 100.0 mg/kg/injection, schedule: Q04DX003 (ip), vehicle: saline) was 163 % of control; the T/C (endpoint: mean survival time, dose: 100.0 mg/kg/injection, schedule: Q## X024 (ip), vehicle: saline) was 160 % of control; the T/C under setting [1] is 155 % of control; the T/C (endpoint: mean survival time, dose: 200.0 mg/kg/injection, schedule: Q01DX001 (oral), vehicle: saline) was 103 % of control. Moreover, the T/C runs as follows: (endpoint: mean survival time, dose: 200.0 mg/kg/injection, schedule: Q01DX001 (sc), vehicle: saline) 102 % of control; (endpoint: mean survival time, dose: 200.0 mg/kg/injection, schedule: Q01DX007 (ip), vehicle: saline) 90 % of control; (endpoint: mean survival time, dose: 200.0 mg/kg/injection, schedule: Q01DX009 (ip), vehicle: saline) 217 % of control; (endpoint: mean survival time, dose: 200.0 mg/kg/injection, schedule: Q01DX009 (oral), vehicle: saline) 88 % of control; (endpoint: mean survival time, dose: 200.0 mg/kg/injection, schedule: Q01DX009 (sc), vehicle: saline) 119 % of control; (endpoint: mean survival time, dose: 200.0 mg/kg/injection, schedule: Q03DX003 (ip), vehicle: saline) 186 % of control. Also, the T/C by setting is: (endpoint: mean survival time, dose: 200.0 mg/kg/injection, schedule: Q03HX008 (ip), vehicle: saline) 152 % of control; (endpoint: mean survival time, dose: 200.0 mg/kg/injection, schedule: Q04DX003 (ip), vehicle: saline) 156 % of control and 200 % of control; (endpoint: mean survival time, dose: 200.0 mg/kg/injection, schedule: Q08DX002 (ip), vehicle: saline) 172 % of control; (endpoint: mean survival time, dose: 200.0 mg/kg/injection, schedule: Q## X016 (ip), vehicle: saline) 198 % of control; (endpoint: mean survival time, dose: 200.0 mg/kg/injection, schedule: Q## X024 (ip), vehicle: saline) 230 % of control; under setting [2], 180 % of control. Besides, the T/C is 101 % of control (endpoint: mean survival time, dose: 400.0 mg/kg/injection, schedule: Q01DX001 (oral), vehicle: saline); 105 % of control (endpoint: mean survival time, dose: 400.0 mg/kg/injection, schedule: Q01DX001 (sc), vehicle: saline); 116 % of control (endpoint: mean survival time, dose: 400.0 mg/kg/injection, schedule: Q01DX009 (oral), vehicle: saline); 179 % of control (endpoint: mean survival time, dose: 400.0 mg/kg/injection, schedule: Q03HX008 (ip), vehicle: saline); 325 % of control (endpoint: mean survival time, dose: 400.0 mg/kg/injection, schedule: Q04DX003 (ip), vehicle: saline); 225 % of control (endpoint: mean survival time, dose: 400.0 mg/kg/injection, schedule: Q08DX002 (ip), vehicle: saline). For the same compound, the T/C by setting is: (endpoint: mean survival time, dose: 400.0 mg/kg/injection, schedule: Q## X016 (ip), vehicle: saline) 284 % of control; (endpoint: mean survival time, dose: 400.0 mg/kg/injection, schedule: Q## X024 (ip), vehicle: saline) 374 % of control; (endpoint: mean survival time, dose: 800.0 mg/kg/injection, schedule: Q01DX001 (ip), vehicle: saline) 206 % of control; (endpoint: mean survival time, dose: 800.0 mg/kg/injection, schedule: Q01DX001 (oral), vehicle: saline) 102 % of control; (endpoint: mean survival time, dose: 800.0 mg/kg/injection, schedule: Q01DX001 (sc), vehicle: saline) 105 % of control; (endpoint: mean survival time, dose: 800.0 mg/kg/injection, schedule: Q01DX009 (oral), vehicle: saline) 98 % of control. The T/C by setting is: (endpoint: mean survival time, dose: 800.0 mg/kg/injection, schedule: Q04DX003 (ip), vehicle: saline) 294 % of control; (endpoint: mean survival time, dose: 800.0 mg/kg/injection, schedule: Q08DX002 (ip), vehicle: saline) 217 % of control; (endpoint: mean survival time, dose: 800.0 mg/kg/injection, schedule: Q## X016 (ip), vehicle: saline) 235 % of control; (endpoint: mean survival time, dose: 1600.0 mg/kg/injection, schedule: Q01DX001 (oral), vehicle: saline) 102 % of control.
As to `CSc1nccc2c1ncn2C1OC(CO)C(O)C1O` (stereo unspecified), the T/C under setting [3] is 98 % of control, the T/C under setting [1] is 104 % of control and the T/C under setting [2] is 104 % of control.
For `COC1C(O)C(C)OC(OC2C(Oc3cccc4c(O)c5c(=O)oc6ccc(C)c7c(=O)oc(c34)c5c67)OC(C)C(O)C2O)C1O` (stereo unspecified), the T/C is, setting by setting: (endpoint: mean survival time, dose: 5.0 mg/kg/injection, schedule: Q01DX009 (ip), vehicle: saline with Tween-80) 116 % of control; (endpoint: mean survival time, dose: 10.0 mg/kg/injection, schedule: Q01DX009 (ip), vehicle: saline with Tween-80) 115 % of control; (endpoint: mean survival time, dose: 20.0 mg/kg/injection, schedule: Q01DX009 (ip), vehicle: saline with Tween-80) 116 % of control; (endpoint: mean survival time, dose: 80.0 mg/kg/injection, schedule: Q01DX009 (ip), vehicle: saline with Tween-80) 123 % of control.
In the case of `Cc1cc(C)c(C(=O)CC(C)C)c(C)c1`, the T/C was 104 % of control under setting [3], 104 % of control under setting [1] and 104 % of control under setting [2].
For `O=C1NN=C2CCCCC12` (stereo unspecified), the T/C reads like this: (endpoint: mean survival time, dose: 100.0 mg/kg/injection, schedule: Q01DX009 (ip), vehicle: Klucel (hydroxypropylcellulose) (HPC)) 97 % of control; (endpoint: mean survival time, dose: 200.0 mg/kg/injection, schedule: Q01DX009 (ip), vehicle: Klucel (hydroxypropylcellulose) (HPC)) 96 % of control; (endpoint: mean survival time, dose: 400.0 mg/kg/injection, schedule: Q01DX009 (ip), vehicle: Klucel (hydroxypropylcellulose) (HPC)) 102 % of control.
As for `O=C(/C=C/c1ccncc1)c1ccccc1`, the T/C runs as follows: (endpoint: mean survival time, dose: 100.0 mg/kg/injection, schedule: Q01DX009 (ip), vehicle: saline with Tween-80) 92 % of control; under setting [4], 89 % of control; (endpoint: mean survival time, dose: 200.0 mg/kg/injection, schedule: Q01DX009 (ip), vehicle: saline with Tween-80) 89 % of control; (endpoint: mean survival time, dose: 200.0 mg/kg/injection, schedule: Q04DX003 (ip), vehicle: saline with Tween-80) 89 % of control; (endpoint: mean survival time, dose: 400.0 mg/kg/injection, schedule: Q01DX009 (ip), vehicle: saline with Tween-80) 91 % of control; (endpoint: mean survival time, dose: 400.0 mg/kg/injection, schedule: Q04DX003 (ip), vehicle: saline with Tween-80) 95 % of control.
Take `CC(C)CN1C(=O)C2C3CCC(O3)C2C1=O` (stereo unspecified): the T/C reads like this: (endpoint: mean survival time, dose: 100.0 mg/kg/injection, schedule: Q04DX002 (ip), vehicle: saline with Tween-80) 95 % of control; (endpoint: mean survival time, dose: 200.0 mg/kg/injection, schedule: Q04DX002 (ip), vehicle: saline with Tween-80) 91 % of control; (endpoint: mean survival time, dose: 400.0 mg/kg/injection, schedule: Q04DX002 (ip), vehicle: saline with Tween-80) 102 % of control.
For the compound `CNC(=O)O/N=C(\CN=[N+]=[N-])C(C)(C)C`, the T/C was 102 % of control (endpoint: median survival time, dose: 0.25 mg/kg/injection, schedule: Q01DX009 (ip), vehicle: saline); 96 % of control (endpoint: median survival time, dose: 0.5 mg/kg/injection, schedule: Q01DX009 (ip), vehicle: saline); 103 % of control (endpoint: median survival time, dose: 1.0 mg/kg/injection, schedule: Q01DX009 (ip), vehicle: saline).
On to `O=C(/C=C/c1ccccc1O)/C=C/c1ccccc1O`, for which the T/C was 107 % of control (endpoint: mean survival time, dose: 25.0 mg/kg/injection, schedule: Q01DX009 (ip), vehicle: saline with Tween-80); 111 % of control (endpoint: mean survival time, dose: 25.0 mg/kg/injection, schedule: Q04DX003 (ip), vehicle: saline with Tween-80); 94 % of control (endpoint: mean survival time, dose: 50.0 mg/kg/injection, schedule: Q01DX009 (ip), vehicle: saline with Tween-80); 101 % of control (endpoint: mean survival time, dose: 50.0 mg/kg/injection, schedule: Q04DX003 (ip), vehicle: saline with Tween-80); 105 % of control under setting [4].

Values taken from PubChem BioAssay AID256 (DTP/NCI, 2004).
